Measurements: patent US20240248442A1, “COMPUTER-IMPLEMENTED METHOD FOR APPLYING A GLUTAMINE […] ON AN AG[…]” (BASF SE, priority 2021, published 2024)

Test system: GLXMA (Glycine max; soybean plant)
Assay: Greenhouse spray test of glufosinate efficacy on soybean plants under different nitrogen supply
Type: in vivo
Settings: GF-solution 280 g/l glufosinate-ammonium, 300 g a.i./ha, water rate 200 l/ha, assessed 3 and 7 daa (time of this value not stated)
Procedure: GLXMA (Glycine max; soybean plant) plants were grown on soil in a green house. Before separation into single pots plants were watered with demineralized water (VE-water). After separation into single pots and splitting into four different nourishing groups, the pots were individually watered with 50 ml of the respective nutrient solution. The following recipe for the full-nutrient solution (5 mM N) mentioned in the book “Diagnose des Ernährungszustandes von Kulturpflanzen”, ISBN: 978-3-86263-118-6, table 3-2, page 94 has been used:
Plants were grown until the growth stage GS 61 (58-74 cm), where first symptoms of nutrient deficiency became visible. This included yellowing of the leaves which were watered with N-deficient media.
A spray application was performed in a high speed spray cabin with the following settings: used nozzle: TT 110 02; pressure: 3 bar; speed: 1.33 m/s; temperature: 22° C.; relative spray humidity: 55%
Spray solution: A GF-solution comprising 280 g/l glufosinate-ammonium is sprayed with an a.i. dose rate of 300 g/ha and a water rate of 200 l/ha. The control plants were sprayed with water (ddH2O) only. After spraying, all plants were watered with VE-water. A biological assessment was performed 3 and 7 days after application (daa).
In other words, to achieve an N-deficiency, the plants were separated in four different groups, which were watered with 4 different nutrient solutions. The “full” medium contained a final concentration of 5 mM N nitrogen-sources, whereas the N-deficiency media contained either 0 mM N (“null” medium) or 1.25 mM N and 2.5 mM N (“deficiency” media). Nutrient deficiency became visible at the GS 61.
In FIGS. 2 and 3, GLXMA is Glycine max (soybean plant), G ai/ha is grams of active ingredient per hectare, CWD is the control group without treatment, GF-Solution is the solution comprising 280 g/l glufosinate-ammonium. At full (5 mM) or half full (2.5 mM) nitrogen supply was detected and rated to an average of 35. Lowering the nitrogen supply to a level of 1.25 mM increases the efficacy of glufosinate to 48, which is visibly by more chlorotic and necrotic tissue. Under complete nitrogen deficiency the symptoms are boosted and result in an average efficacy rating of 75.

## CP(=O)(O)CCC(N)C(=O)O (racemic) [glufosinate, (2RS)-2-amino-4-[hydroxy-(methyl)phosphinoyl]butyric acid]
Complete nitrogen deficiency (0 mM N)
  average efficacy rating (biological assessment): 75
Full (5 mM) nitrogen supply
  average efficacy rating (biological assessment): 35
Half full (2.5 mM) nitrogen supply
  average efficacy rating (biological assessment): 35
Nitrogen supply 1.25 mM
  average efficacy rating (biological assessment): 48
